According to patent publication US4436732A, “Medicated compound for treating diseases infected by virus of the herpes group” (priority 1981, dated 1984):

Assays:
[1] = anti-ulcerous effect on the model of caffeine-arsenic ulcer; type: in vivo, rats; conditions: per os for nine days, 20 mg/kg
Procedure: The anti-ulcerous effect of the active principle has been studied on the model of caffeine-arsenic ulcer in rats. The substance is administered per os for nine days in the doses of 1, 10 and 20 mg/kg.

[2] = system: HV (virus of the herpes group); assay: antiviral properties in vitro in a culture of cells of fibroblasts of a chicken embryo (virus-suppressing effect, cytopathogenic effect); type: cell-based; conditions: 10 μg/ml; 100 TCD50 HV
Procedure: The study of antiviral properties of the active principle has been carried out in in vitro experiments in a culture of cells of fibroblasts of a chicken embryo following a commonly employed procedure for primary screening of antiviral preparations. Cells are grown in flasks or test-tubes on the nutrient medium 199 with the addition of 5 to 10 vol.% of cattle serum. Then, for the contact of the virus with cells, into the flasks a virus-containing material is added in doses of 1, 10, 100 and 1,000 TCD50. […] Flasks or test-tubes are then subjected to thermosetting at the temperature of 37° C. The virus-suppressing effect is determined for 5 days by way of comparison of the presence of cytopathogenic effect in the control and test flasks and test-tubes. As the control use is made of: control of the single layer of cells, the control of the active principle without virus and the control of the virus without the active principle.

[3] = effect on acute exudative and chronical proliferative phases of inflammation; type: in vivo, mice
Procedure: The effect of the active principle on the acute exudative and chronical proliferative phases of inflammation in doses of 10 and 50 mg/kg has been studied upon per os administration to mice.

[4] = effect on characteristics of blood coagulation; type: in vivo, rabbits; conditions: per os, 50 mg/kg, during 4 hours
Procedure: The study of the effect of the active principle on certain characteristics of blood coagulation has been carried out on 5 rabbits. The compound is administered per os in the dose of 50 mg/kg as a suspension in a 2% starch paste. Blood has been examined prior to the administration and during 4 hours after a single-time administration of the suspension; determined are: blood plasma recalcification, thrombin time, thrombelastographic characteristics and thrombocyte concentration.

[5] = effect on hemodynamics and breathing, acute experiment on narcotized cats; type: in vivo; conditions: 50 mg/kg intra-stomach
Procedure: The study of the effect of this compound on the characteristics of hemodynamics and breathing has been carried out in an acute experiment on 6 narcotized cats (urethane 1.0 g/kg, chloralose 60 mg/kg) upon the intra-stomach administration of the active principle in the dose of 50 mg/kg. In each cat simultaneously recorded were the breathing frequency cardiac contraction frequency, systemic arterial pressure, amplitude of the volume blood flow in the abdominal aorta, amplitude of the brain rheograms and femur muscles rheorgrams.

[6] = solubility of the active principle; type: physicochemical
Excerpt: The active principle is an individual substance of the xanthone nature (mangiferin euxantogen) of the formula C19 H18 O11. […] This compound has not been hitherto used in the medicine.

[7] = system: vessels of an isolated rabbit's ear; assay: vasodilative effect on vessels of an isolated rabbit's ear
Excerpt: The cardiological effect of the active principle has been studied in experiments on an isolated cat's heart; the effect on electrocardiographic characteristics has been studied in experiments on rabbits; the vasodilative effect--on vessels of an isolated rabbit's ear; the spasmolytic effect--on acetylcholine and barium spasms of smooth muscles of an isolated section of a rat's small intestine.

[8] = system: herpetic encephalitis (HV); assay: experimental virus model of herpetic encephalitis of white mice; type: in vivo; conditions: for Average life span: control 4.78 ± 0.46; for Life span: control 12.7 ± 2.6; for Survival, %: control 70
Procedure: The chemotherapeutic effect of the active principle and the pharmaceutical composition on the whole has been studied on an experimental virus model of herpetic encephalitis of white mice. In the experiments more than 1,500 animals were used. To obtain the experimental encephalitis, white mice weighing 8-10 g have been infected intracerebrally. Prior to the infection the animal head skin is smeared with iodine, then ten-times dilutions of the virus-containing liquid in the volume of 0.03 ml are injected by means of a tuberculin syringe into the supraorbital area near the front median line to a depth of 1-2 mm directly into the brain. 3 to 7 days thereafter in the animals there were observed the disease signs (excitation, coordination disturbance, adynamia, paresis and paralysis) which were rapidly intensified and terminated in death. The experiments were assessed by the animal survival (in percent) and by the average life span of the test animals as compared to the control.
For treatment purposes the active principle or the medicated compound in the form of tablets is administered to the infected animals per os by means of a gastric tube as an aqueous suspension in the volume of 0.5 ml in doses of 20 to 500 mg/kg of the body weight 1 or 2 times per day. The tests have been carried out according to three schemes. In the first scheme, in order to preliminarily saturate the animal's organism with the active principle or the preparation were administered to the animals 1-2 days before the infection (preventive test). In the second scheme, to reveal the therapeutic effect of the active principle or the pharmaceutical composition, the compositions were introduced on the infection day and one or two days after the infection. In the third scheme (treatment-prophylaxis) the active principle or the medicated compound is administered the day before the infection or on the infection day, in both cases the treatment of the animal is continued for 5 to 7 days after the infection.
The most advantageous chemotherapeutic effect of the active principle or the pharmaceutical composition is manifested under the conditions of the treatment-prophylaxis application (third scheme).

[9] = neurotropic activity: influence upon the somnific effects of hexenal or chloralhydrate; type: in vivo; conditions: per os, 1, 10 and 100 mg/kg
Procedure: The neurotropic activity of the active principle is assessed through its influence upon the somnific effects of hexenal or chloralhydrate. The substance is introduced per os in the doses of 1, 10 and 100 mg/kg.

[10] = once a day, 0.04 mg/mice, P above 0.5
[11] = once a day, 0.2 mg/mice, P above 0.25
[12] = once a day, 1 mg/mice, P above 0.25
[13] = once a day, 5 mg/mice, P above 0.5
[14] = two times a day, 0.04 mg/mice, P above 0.1
[15] = two times a day, 0.2 mg/mice, P below 0.05
[16] = two times a day, 1 mg/mice, P below 0.05
[17] = two times a day, 5 mg/mice, P above 0.1

Structure (SMILES): O=c1c2cc(O)c(O)cc2oc2cc(O)c([C@@H]3O[C@H](CO)[C@@H](O)[C@H](O)[C@H]3O)c(O)c12 [active principle, 2-C-β-D-glucopyranosyl-1,3,6,7-tetraoxyxanthone]
- anti-ulcerous effect [1]: weak anti-ulcerous effect
- virus-suppressing effect [2]: high virus-suppressing effect
- exudative phase in chronical proliferative inflammation ([3]; model of chronical proliferative inflammation): somewhat suppresses
- development of the exudative phase of inflammation ([3]; per os, 50 mg/kg): suppresses the development of the exudative phase of inflammation
- antiphlogistic activity relative to formalin edema ([3]; per os, 50 mg/kg, P below 0.005): 12.7
- antiphlogistic activity relative to dextran edema ([3]; per os, 50 mg/kg, P below 0.05): 16.5
- lowering of penetration of skin vessels ([3]; per os, 50 mg/kg, P below 0.05): 15%
- antiphlogistic effect ([3]; per os, 10 and 50 mg/kg): slight antiphlogistic effect
- formation of granulation-fibrous tissue ([3]; proliferative stage of chronical inflammation): retards the formation of a granulation-fibrous tissue
- effect on the blood coagulation process [4]: does not substantially affect
- other characteristics of hemodynamics ([5]; narcotized cats): not substantially changed
- systemic arterial pressure ([5]; narcotized cats): slightly lowers
- reduction of arterial pressure ([5]; 60 and 90 minutes): do not differ from the control
- reduction of breathing frequency vs control ([5]; 60 and 90 minutes): do not differ from the control
- reduction of breathing frequency ([5]; 10 minutes, P below 0.05): 21%
- reduction of breathing frequency ([5]; 30 minutes, P below 0.01): 32%
- solubility in chloroform ([6]; chloroform): insoluble
- solubility in ethanol ([6]; ethanol): sparingly soluble
- solubility in ethyl ether ([6]; ethyl ether): insoluble
- solubility in water ([6]; water): insoluble
- vasodilative effect [7]: no vasodilative
- chemotherapeutic effect ([8]; administration in maximum shortest time of the infection (Table 2)): highest
- chemotherapeutic effect ([8]; administration two times a day (Table 1)): highest, statistically certain chemotherapeutic effect
- chemotherapeutic effect (time of death vs control) ([8]; first two schemes (preventive; therapeutic), per os): impossible to reveal statistically certain chemotherapeutic effect
- Average life span ([8]; on the infection day, 1 mg/mice, P above 0.25): 5.16 ± 0.91 days
- Average life span ([8]; on the infection day, 2 mg/mice, P above 0.5): 5.0 ± 0.56 days
- Average life span ([8]; on the infection day, 5 mg/mice, P below 0.05): 6.41 ± 0.71 days
- Life span [8, 10]: 13.3 ± 2.5 days
- Survival, % [8, 10]: 80%
- Life span [8, 11]: 14.0 ± 2.3 days
- Survival, % [8, 11]: 90%
- Life span [8, 12]: 14.0 ± 2.2 days
- Survival, % [8, 12]: 90%
- Life span [8, 13]: 13.1 ± 2.7 days
- Survival, % [8, 13]: 70%
- Average life span ([8]; one day before infection, 1 mg/mice, P 0.05): 5.6 ± 0.82 days
- Average life span ([8]; one day before infection, 2 mg/mice, P below 0.05): 6.05 ± 0.83 days
- Average life span ([8]; one day before infection, 5 mg/mice, P below 0.05): 6.13 ± 1.04 days
- Life span [8, 14]: 14.1 ± 0.9 days
- Survival, % [8, 14]: 90%
- Life span [8, 15]: 15.0 days
- Survival, % [8, 15]: 100%
- Life span [8, 16]: 15.0 days
- Survival, % [8, 16]: 100%
- Life span [8, 17]: 14.3 ± 2.5 days
- Survival, % [8, 17]: 90%
- effect on duration of sleep caused by chloralhydrate [9]: no substantial effect
- effect on duration of sleep caused by hexenal [9]: no substantial effect
